These compounds were tested on Plasmodium falciparum (assay: GSK_TCMDC: Inhibition of Plasmodium falciparum 3D7 in whole erythrocytes, using parasite LDH activity as an index of growth.). Conditions: Plasmodium falciparum, 3D7.
Assay type: functional, organism-based
With `N#Cc1ccc(N2CCN(Cc3cccc(-c4cccc(-c5nc6cc(F)ccc6[nH]5)c4)c3)CC2)nc1` the XC50 was 959 nM. Work on `O=C(/C=C/C=C/c1ccccc1)NC1CCC(CN2CCC(c3c[nH]c4ccccc34)CC2)CC1` (centres undefined) yielded an XC50 of 868 nM. `CC(C)(C)c1ccc(CNC(=O)c2ccc(-c3nc4cc(C(C)(C)C)ccc4[nH]3)cc2)cc1` showed an XC50 of 840 nM. In the case of `CCCCCCC(C)(C)c1cc(O)c2c3c(c(=O)oc2c1)CCN(Cc1ccccc1)C3`, the XC50 is reported as 217 nM. `CCOc1c(CNCCCNc2nc3ccccc3[nH]2)cc(I)cc1OC` gave an XC50 of 663 nM. `O=C(Nc1ccc(C(=O)OCC2CCCCC2)cc1)N[C@@H](Cc1ccc(O)cc1)C(=O)NC1CCN(Cc2ccc(O)cc2)C1` (some centres undefined) showed an XC50 of 874 nM. `Cc1cc2nc(-c3ccc(SCC(=O)Nc4ccc5c(c4)OCCO5)nc3)[nH]c2cc1C` showed an XC50 of 989 nM. In the case of `O=C(NCc1ccc(S(=O)(=O)N2CCC(CN3CCC(c4c[nH]c5ccccc45)CC3)CC2)s1)c1ccccc1`, the XC50 is reported as 843 nM. `N=C(N)Nc1nc(-c2cccc(NCCCCCCCCON3C(N)=NC(N)=NC34CCCCC4)c2)cs1` showed an XC50 of 226 nM. `COc1cc(NC(=O)N2CCc3ccc(OCCN(C(C)C)C(C)C)cc32)cc(C(F)(F)F)c1` showed an XC50 of 186 nM. With `CCCc1c(C(=O)OCC)c2cc(O)ccc2n1-c1ccc(OC)cc1` the XC50 was 138 nM. For `NS(=O)(=O)c1cccc(Nc2nccc(-c3cnn4ncccc34)n2)c1`, the XC50 was 661 nM. `Cc1cccc2nc(-c3ccc(-c4ccc(NC(=O)C(=O)c5cccn5C)cc4)cc3)[nH]c12` gave an XC50 of 819 nM. Work on `O=C(Nc1ccc(Cl)c(Cl)c1)N1CCc2ccc(OCCCN3CCCCC3)cc2CC1` yielded an XC50 of 1520 nM. In the case of `C[C@@H]1CN(C(c2cccc(O)c2)c2cccc(C(=O)N(C)c3cccc(F)c3)c2)[C@@H](C)CN1C(c1cccc(O)c1)c1cccc(C(=O)N(C)c2cccc(F)c2)c1` (some centres undefined), the XC50 is reported as 918 nM. For `COc1ccc(CNC2CCN(C)CC2)cc1-c1ccc(S(=O)(=O)NCc2ccccc2)c(C)c1`, the XC50 was 992 nM. `COC(=O)c1ccc(CC(C)NCC(O)c2ccc(Cl)c(Cl)c2)cc1` (centres undefined) showed an XC50 of 1000 nM. With `Cc1cccc(NC(=O)Nc2ccc(I)c(OCCN(C)C)c2)c1C` the XC50 was 725 nM. Compound `O=C(Nc1cccc(C(F)(F)F)c1)Nc1cc(F)c(F)cc1Cl` has an XC50 of 1960 nM. For `[O-][s+]1nc(NCCCN(Cc2cccs2)c2ccccn2)c(NCc2ccccc2)n1` (centres undefined), the XC50 was 305 nM. With `Cc1cc(-c2cccc(CNC3CCN(C)CC3)c2)ccc1S(=O)(=O)NC1CCC1` the XC50 was 731 nM. `CCN(CC)Cc1ccc2c(=O)cc(CCc3cccc(F)c3F)n(CC(=O)N(Cc3ccc(-c4ccc(C(F)(F)F)cc4)cc3)C(C)C)c2c1` showed an XC50 of 782 nM. `CCN(CC)CCOC(=O)C(OC)(c1ccccc1)c1ccccc1` gave an XC50 of 1020 nM. `N#Cc1ccc(C2CCN(CC[C@H](N)Cc3ccc(Cl)s3)CC2)cc1` was tested, and the XC50 was 1260 nM. For `COc1ccc(C(=O)Nc2ccc(-c3ccc([N+](=O)[O-])cc3)cc2)cc1CCCN(C)C`, the XC50 was 803 nM. `O=C(Nc1ccc(Cl)c(Cl)c1)N1CCC(CN2CCC(c3c[nH]c4ccccc34)CC2)CC1` was tested, and the XC50 was 295 nM. Compound `CCOc1ccc2nc(NC(=O)c3csnn3)sc2c1` has an XC50 of 476 nM. `O=S(=O)(NCCN1CCCC1)c1cccc(-c2ccc(CNC3Cc4ccccc4C3)cc2)c1` was tested, and the XC50 was 660 nM. `Cc1c2c(nn1-c1ccccc1)C(c1ccccc1)N(c1ccccc1)C2=O` (centres undefined) gave an XC50 of 147 nM. With `CCOc1cc(C(=O)NCCCN2CCCCC2C)ccc1-c1nc2cc(Cl)ccc2[nH]1` (centres undefined) the XC50 was 1070 nM. For `CN(Cc1ccc(NC(=O)NC2CCN(C(=O)/C=C/c3ccc(Cl)c(Cl)c3)CC2)cc1)C1CCOCC1`, the XC50 was 876 nM. With `COc1ccc2nccc([C@@H](O)CN3CCC(NC(=O)c4ccc(CN5CCN(c6cccc(C)c6)CC5C)cc4)CC3)c2c1` (some centres undefined) the XC50 was 211 nM. For `COc1ccc(CNC(=N)Nc2nc(-c3ccc(OCCCn4ccnc4)cc3)cs2)cc1`, the XC50 was 393 nM. In the case of `Cc1cccc2nc(-c3cccc(-c4ccc(NC(=O)C(C)CN5CCN(C)CC5)cc4)c3)[nH]c12` (centres undefined), the XC50 is reported as 175 nM. For `Cc1cccc2nc(-c3ccc(-c4cccc(CNCC5CCCO5)c4)cc3)[nH]c12` (centres undefined), the XC50 was 700 nM. `CC(C)N1CCN(C(=O)c2ccc(CNCCCN3CCN(c4cccc(Cl)c4Cl)CC3)o2)CC1` gave an XC50 of 737 nM. In the case of `Cc1cccc2nc(-c3cccc(-c4cccc(NC(=O)c5csnn5)c4)c3)[nH]c12`, the XC50 is reported as 304 nM. Compound `COc1cccc(Nc2nc(C)cc(NCc3ccc(-n4ccnc4)cc3)n2)c1` has an XC50 of 958 nM. In the case of `CC(C)Nc1nc(NCCc2c[nH]cn2)nc(NCc2ccc(Cl)c(Cl)c2)n1`, the XC50 is reported as 962 nM. Compound `Clc1ccc(Nc2nc(NCc3ccccc3)nc(N/N=C/c3ccccn3)n2)cc1` has an XC50 of 776 nM. `Cc1ccc(CN2CCCN(Cc3cccc(NC(=O)c4cc5ccccc5s4)c3)CC2)cc1` was tested, and the XC50 was 1190 nM. Work on `CC(C)(C)c1cc(C(=O)N2CCN(c3ccc(C(F)(F)F)cn3)CC2)n(Cc2ccc(F)cc2)n1` yielded an XC50 of 978 nM. `c1cncc(Oc2ccc(Nc3ccnc4cc(-c5cccc(CNCCN6CCOCC6)c5)ccc34)cc2)c1` showed an XC50 of 112 nM. `CCN(CC)CCN(Cc1ccc(-c2ccc(C(F)(F)F)cc2)cc1)C(=O)Cn1c(CCc2cccc(F)c2F)cc(=O)c2c1CCCC2` was tested, and the XC50 was 866 nM. Work on `O=C(N[C@H]1CCN(Cc2ccc(OC3CCN(Cc4ccccc4)CC3)c(Cl)c2)C1)c1ccc(Cl)c(Cl)c1` yielded an XC50 of 814 nM. Work on `COc1ccc(OCCn2cc(C(=O)c3ccco3)c3ccccc32)cc1` yielded an XC50 of 773 nM. For `Cn1nccc1C(=O)NCCNCc1cccc(-c2csc(-c3nc4ccccc4[nH]3)c2)c1`, the XC50 was 840 nM. For `CC(C)CCNCc1ccc(OCc2cccc(C(=O)Nc3ccccc3)c2)c(I)c1`, the XC50 was 288 nM. For `Cc1ccccc1Cn1c(CN2CCC(C(=O)NC3CC3)CC2)cc2ccccc21`, the XC50 was 477 nM. Work on `CN1CCCC(CN2CCN(Cc3ccc(-c4ccc(-c5nc6cc(F)ccc6[nH]5)cc4)cc3)CC2)C1` (centres undefined) yielded an XC50 of 117 nM. In the case of `CN(CCCc1c[nH]c2ccccc12)CC1CCN(C(=O)/C=C/c2ccc(Cl)c(Cl)c2)CC1`, the XC50 is reported as 747 nM. `CCCCCc1cc(OC(C)=O)c2c(c1)OC(C)(C)C=C2C1=CCN(Cc2ccccc2)CC1` showed an XC50 of 926 nM. `C=C[C@H]1CN(CCCCCCC)CC[C@H]1CCNc1ccnc2ccc(OC)cc12` gave an XC50 of 61.8 nM. `Cc1cc(N)c2cc(NC(=O)c3cc4ccccc4s3)ccc2n1` was tested, and the XC50 was 115 nM. For `O=C(Nc1nc2cc(S(=O)(=O)NCCc3cccc(F)c3)ccc2n1CCCn1ccnc1)c1ccc(Cl)cc1`, the XC50 was 1270 nM. In the case of `CC(=O)Nc1nc(C(=O)Nc2ccc(-c3cccc(-c4nc5cc(F)ccc5[nH]4)c3)cc2)cs1`, the XC50 is reported as 292 nM. Compound `COc1ccc(C(=O)C2CC2CN2CC=C(c3c[nH]c4cccc(Br)c34)CC2)cc1` (centres undefined) has an XC50 of 935 nM. For `COc1cc2c(cc1OC)C(C(=O)Nc1ccc(C(F)(F)F)cc1)C(c1cccs1)N(C)C2=O` (centres undefined), the XC50 was 158 nM. Work on `CN1CCC(NCc2cccc(-c3ccc(S(=O)(=O)NCCc4ccccn4)c(F)c3)c2)CC1` yielded an XC50 of 918 nM. With `O=C(CSc1nc(-c2ccccc2Cl)ns1)Nc1cccc(F)c1` the XC50 was 1110 nM. In the case of `COc1ccc(OCCON)cc1`, the XC50 is reported as 201 nM. `Cc1ccc(OC2CCN(CCCCC3(C)C(=O)Nc4ccccc43)CC2)cc1` (centres undefined) showed an XC50 of 743 nM. In the case of `NC(=O)c1cccc(CN2Cc3ccccc3OC3(CCN(Cc4c[nH]c5cnccc45)CC3)C2)c1`, the XC50 is reported as 1060 nM. `CC(C)CNC(=O)c1cncc(-c2ccc(CNC3Cc4ccccc4C3)cc2)c1` gave an XC50 of 698 nM. `CCCCCCC(C)c1cc(O)c2c(c1)OC(C)(C)C=C2c1ccncc1` (centres undefined) was tested, and the XC50 was 733 nM. Work on `Cc1ccc(CON2C(=N)N=C(N)NC2(C)C)cc1C` yielded an XC50 of 3.2 nM. In the case of `CC[C@H]1CN2CC[C@H]1C[C@H]2[C@H](O)c1cc(-c2ccccc2F)nc2ccc(OC)cc12`, the XC50 is reported as 78.9 nM. Compound `CN1CCC(C(=O)Nc2ccc(-c3ccc(-c4nc5ccccc5[nH]4)cc3)cc2)CC1` has an XC50 of 976 nM. In the case of `Cc1cccc2nc(-c3ccc(-c4ccc(NC(=O)NC5CC5c5ccccc5)cc4)cc3)[nH]c12` (centres undefined), the XC50 is reported as 876 nM.
